Experimental findings from patent publication US7868026B2, “Therapeutic compounds” (Pfizer Inc., priority 2005, dated 2011) are described below.

As a reminder, the IC50 is the concentration that inhibits the measured activity by half.

Molecules are shown by their SMILES. Read-outs that look alike come from different tables or passages of the source.

Holding throughout (type): biochemical
Test [1] deals with T1, CYP3A4 (Homo sapiens, UniProt P08684). In words: Determination of compound Kiapp against recombinant CYP3A4 enzyme (BFC fluorescent substrate). In a few lines:
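Recombinant CYP3A4 (5.5 or 8 nM, with or without b5 depending on source) pre-incubated with inhibitor ≥30 min at room temperature in 100 mM sodium phosphate pH 7.0, 5 mM TCEP, 2% DMF. Reaction started with 200 uM NADPH and 5 uM BFC; initial fluorescence rates over 5 min fitted to Morrison tight-binding (non-partial) or Szedlacsek (partial) equations for Kiapp.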

The target of test [2] is T1, CYP3A4. In words: Determination of IC50 against CYP3A4 by measurement of inhibition of testosterone metabolism (human liver microsomes, 6-β-OH-testosterone by LC-MS/MS). Also noted: 0.1 mg/mL human liver microsomes. The note with it: read-out: IC50 (Testo.). Summed up:
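Human liver microsomes (0.1 mg/mL) incubated with 25 μM testosterone and 1 mM NADPH in 100 mM potassium phosphate, pH 7.4, for eight minutes. 6-β-OH-testosterone measured by LC-MS/MS in MRM mode against an internal standard and quantified from a metabolite standard curve.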
In general terms: Microsomes from liver hold many membrane-bound enzymes, among them those of drug oxidation.

Test [3] deals with T1, CYP3A4. Briefly: Determination of IC50 against CYP3A4 by measurement of inhibition of midazolam metabolism (human liver microsomes, 1-hydroxymidazolam by LC-MS/MS). The arrangement: 0.1 mg/mL human liver microsomes. As to conditions: 2 μM midazolam, 0.1 mg/mL human liver microsomes. In a few lines: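 Human liver microsomes (0.1 mg/mL) incubated 8 min with 2 μM midazolam and 1 mM NADPH in 100 mM potassium phosphate, pH 7.4. 1-Hydroxymidazolam quantified by LC-MS/MS (MRM) as peak area ratio to internal standard against a metabolite standard curve.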

[4] abbreviates: Baculo. enzyme preparation, read-out: Kiapp (BFC, Baculo.).
The mark [5] stands for this setting: Super. enzyme preparation, read-out: Kiapp (BFC, Super.).

T1 sequence (P08684 whole entry): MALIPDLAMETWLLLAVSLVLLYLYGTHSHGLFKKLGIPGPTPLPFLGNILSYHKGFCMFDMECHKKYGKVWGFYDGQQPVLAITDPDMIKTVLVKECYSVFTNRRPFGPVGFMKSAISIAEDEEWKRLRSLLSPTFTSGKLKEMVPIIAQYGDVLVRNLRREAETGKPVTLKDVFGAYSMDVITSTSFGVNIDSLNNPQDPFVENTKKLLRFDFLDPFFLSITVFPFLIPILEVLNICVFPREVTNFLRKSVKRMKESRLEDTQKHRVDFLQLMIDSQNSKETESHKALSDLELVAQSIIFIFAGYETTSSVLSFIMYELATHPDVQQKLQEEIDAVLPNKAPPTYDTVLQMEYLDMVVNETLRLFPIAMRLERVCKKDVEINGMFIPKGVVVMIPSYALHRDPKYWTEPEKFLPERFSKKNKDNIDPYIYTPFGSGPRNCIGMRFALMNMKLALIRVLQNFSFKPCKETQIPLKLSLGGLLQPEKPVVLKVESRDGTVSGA

As for `Cc1cncc(NS(=O)(=O)c2ccccc2C(=O)N(C)Cc2ccc(F)c(F)c2)c1` [Example 286, N-(3,4-difluorobenzyl)-N-methyl-2-{[(5-methylpyridin-3-yl)amino]sulfonyl}benzamide], the Ki on CYP3A4 [1] (setting [4]) is 27.2 nM; at CYP3A4 [1] (setting [5]), 4.06 nM. Also, the IC50 came to 9.5 nM on CYP3A4 [2] and 7.67 nM at CYP3A4 [3].

On to `CCOc1cncc(NS(=O)(=O)c2ccccc2C(=O)NC2CCCC2)c1` [Example 287, N-cyclopentyl-2-{[(5-ethoxypyridin-3-yl)amino]sulfonyl}benzamide], for which the values for the Ki on CYP3A4 [1] (setting [4]) and at CYP3A4 [1] (setting [5]) were 216 nM and 47.7 nM, respectively. Besides, the results for the IC50 at CYP3A4 [2] and at CYP3A4 [3] were 99 nM and 43 nM, respectively.

For the compound `CCOc1cncc(NS(=O)(=O)c2ccccc2C(=O)NCc2ccc(F)c(C(F)(F)F)c2)c1` [Example 288, 2-{[(5-ethoxypyridin-3-yl)amino]sulfonyl}-N-[4-fluoro-3-(trifluoromethyl)benzyl]benzamide], the results for the Ki on CYP3A4 [1] (setting [4]) and on CYP3A4 [1] (setting [5]) were 2.2 nM and 3.08 nM, respectively. Moreover, the IC50 was 18 nM at CYP3A4 [2] and 12 nM on CYP3A4 [3].

In the case of `CCOc1cncc(NS(=O)(=O)c2ccccc2C(=O)N(C)Cc2ccc(F)c(F)c2)c1` [Example 289, N-(3,4-difluorobenzyl)-2-{[(5-ethoxypyridin-3-yl)amino]sulfonyl}-N-methylbenzamide], the Ki at CYP3A4 [1] (setting [4]) was determined as 5.9 nM; on CYP3A4 [1] (setting [5]), 4.97 nM. For the same compound, the IC50 at CYP3A4 [2] is 27 nM; on CYP3A4 [3] it was 15 nM.

In the case of `CCOc1cncc(NS(=O)(=O)c2ccccc2C(=O)NCc2ccc(F)c(F)c2)c1` [Example 290, N-(3,4-difluorobenzyl)-2-{[(5-ethoxypyridin-3-yl)amino]sulfonyl}benzamide], the Ki at CYP3A4 [1] (setting [4]) turned out to be 14.6 nM; on CYP3A4 [1] (setting [5]), 3.94 nM. Moreover, the IC50 at CYP3A4 [2] amounted to 16 nM; on CYP3A4 [3], 4 nM.

In the case of `CCOc1cncc(NS(=O)(=O)c2ccccc2C(=O)NCc2ccc(Cl)c(Cl)c2)c1` [Example 291, N-(3,4-dichlorobenzyl)-2-{[(5-ethoxypyridin-3-yl)amino]sulfonyl}benzamide], the Ki at CYP3A4 [1] (setting [4]) came out at 4.5 nM; on CYP3A4 [1] (setting [5]) it was 2.98 nM. Also, the IC50 at CYP3A4 [2] was determined as 27 nM; at CYP3A4 [3], 21 nM.

Consider `CCOc1cncc(NS(=O)(=O)c2ccccc2C(=O)NCCc2ccccc2C)c1` [Example 292, 2-{[(5-ethoxypyridin-3-yl)amino]sulfonyl}-N-[2-(2-methylphenyl)ethyl]benzamide], for which the Ki was 1.6 nM on CYP3A4 [1] (setting [4]) and 0.618 nM on CYP3A4 [1] (setting [5]). For the same compound, the IC50 on CYP3A4 [2] was 16 nM; at CYP3A4 [3] it was < 3 nM.

For the compound `CCOc1cncc(NS(=O)(=O)c2ccccc2C(=O)NCC2CC2)c1` [Example 293, N-(cyclopropylmethyl)-2-{[(5-ethoxypyridin-3-yl)amino]sulfonyl}benzamide], the Ki on CYP3A4 [1] (setting [4]) is 268 nM; on CYP3A4 [1] (setting [5]), 58.1 nM. For the same compound, the figures for the IC50 at CYP3A4 [2] and on CYP3A4 [3] were 145 nM and 81 nM, respectively.

On to `CCOc1cncc(NS(=O)(=O)c2ccccc2C(=O)NC(C)(C)C)c1` [Example 294, N-(tert-butyl)-2-{[(5-ethoxy-pyridin-3-yl)amino]sulfonyl} benzamide], for which the Ki on CYP3A4 [1] (setting [4]) turned out to be 135 nM; on CYP3A4 [1] (setting [5]) it was 32.1 nM. Moreover, the IC50 on CYP3A4 [2] is 57 nM; on CYP3A4 [3], 24 nM.

For the compound `COc1cncc(NS(=O)(=O)c2ccc(Cl)cc2C(=O)NCCC(C)C)c1` [Example 295, 5-chloro-2-{[(5-methoxypyridin-3-yl)amino]sulfonyl}-N-(3-methylbutyl)benzamide], the Ki at CYP3A4 [1] (setting [4]) turned out to be 184 nM; at CYP3A4 [1] (setting [5]) it was 42 nM. Further, the IC50 at CYP3A4 [2] was 231 nM; on CYP3A4 [3], 42 nM.

`CCOc1cncc(NS(=O)(=O)c2ccccc2C(=O)NCCC(C)C)c1` [Example 296, 2-{[(5-ethoxypyridin-3-yl)amino]sulfonyl}-N-(3-methylbutyl)benzamide]: the Ki on CYP3A4 [1] (setting [4]) is 35.8 nM; on CYP3A4 [1] (setting [5]) it was 9.32 nM. The IC50 came out at 90 nM on CYP3A4 [2] and 12 nM on CYP3A4 [3].

With `CCOc1cncc(NS(=O)(=O)c2ccccc2C(=O)N2CCCC2)c1` [Example 297, N-(5-ethoxypyridin-3-yl)-2-(pyrrolidin-1-ylcarbonyl)benzenesulfonamide], the Ki turned out to be 444 nM on CYP3A4 [1] (setting [4]) and 110 nM on CYP3A4 [1] (setting [5]). For the same compound, the IC50 was > 750 nM on CYP3A4 [2] and 170 nM on CYP3A4 [3].

For `CCOc1cncc(NS(=O)(=O)c2ccccc2C(=O)N2CCCC(C)(C)C2)c1` [Example 298, 2-[(3,3-dimethylpiperidin-1-yl)carbonyl]-N-(5-ethoxypyridin-3-yl)benzenesulfonamide], the Ki on CYP3A4 [1] (setting [4]) was 58.5 nM; on CYP3A4 [1] (setting [5]), 15.6 nM. The IC50 was determined as 135 nM at CYP3A4 [2] and 31 nM on CYP3A4 [3].

Regarding `CCOc1cncc(NS(=O)(=O)c2ccccc2C(=O)NC(C)C2CC2)c1` (stereo not shown) [Example 299, N-(1-cyclopropylethyl)-2-{[(5-ethoxypyridin-3-yl)amino]sulfonyl}benzamide], the results for the Ki at CYP3A4 [1] (setting [4]) and on CYP3A4 [1] (setting [5]) were 56.5 nM and 20.6 nM, respectively. Further, the IC50 on CYP3A4 [2] was found to be 53 nM; at CYP3A4 [3], 26 nM.

With `CCOc1cncc(NS(=O)(=O)c2ccccc2C(=O)NC(C)(C)CC)c1` [Example 300, N-(1,1-dimethylpropyl)-2-{[(5-ethoxypyridin-3-yl)amino]sulfonyl}benzamide], the Ki at CYP3A4 [1] (setting [4]) came out at 57.6 nM; on CYP3A4 [1] (setting [5]), 19.5 nM. Also, the IC50 at CYP3A4 [2] amounted to 39 nM; at CYP3A4 [3] it was 16 nM.

For `CCOc1cncc(NS(=O)(=O)c2ccccc2C(=O)NC2CC2)c1` [Example 301, N-cyclopropyl-2-{[(5-ethoxypyridin-3-yl)amino]sulfonyl}benzamide], the Ki on CYP3A4 [1] (setting [4]) was determined as 409 nM; on CYP3A4 [1] (setting [5]) it was 152 nM. Also, the IC50 on CYP3A4 [2] was > 750 nM; at CYP3A4 [3] it was 140 nM.

Consider `CCOc1cncc(NS(=O)(=O)c2ccccc2C(=O)NC2CCCCC2)c1` [Example 302, N-cyclohexyl-2-{[(5-ethoxypyridin-3-yl)amino]sulfonyl}benzamide], for which the results for the Ki on CYP3A4 [1] (setting [4]) and at CYP3A4 [1] (setting [5]) were 78.9 nM and 24.5 nM, respectively. Further, the IC50 on CYP3A4 [2] was 110 nM; at CYP3A4 [3] it was 23 nM.

For `COc1cncc(NS(=O)(=O)c2ccc(F)cc2C(=O)NCCC(C)C)c1` [Example 303, 5-fluoro-2-{[(5-methoxypyridin-3-yl)amino]sulfonyl}-N-(3-methylbutyl)benzamide], the Ki stood at 118 nM at CYP3A4 [1] (setting [4]) and 31.6 nM on CYP3A4 [1] (setting [5]). The figures for the IC50 on CYP3A4 [2] and on CYP3A4 [3] were 156 nM and 30 nM, respectively.

With `COc1cncc(NS(=O)(=O)c2ccc(F)cc2C(=O)N(C)C(C)C)c1` [Example 304, 5-fluoro-N-isopropyl-2-{[(5-methoxypyridin-3-yl)amino]sulfonyl}-N-methylbenzamide], the Ki came out at 536 nM at CYP3A4 [1] (setting [4]) and 171 nM on CYP3A4 [1] (setting [5]). In addition, the IC50 on CYP3A4 [2] is > 750 nM; on CYP3A4 [3] it was 119 nM.

`CCOc1cncc(NS(=O)(=O)c2ccccc2C(=O)N2CCOCC2)c1` [Example 305, N-(5-ethoxypyridin-3-yl)-2-(morpholin-4-ylcarbonyl)benzenesulfonamide]: the Ki on CYP3A4 [1] (setting [4]) was determined as 753 nM; on CYP3A4 [1] (setting [5]) it was 270 nM. Besides, the IC50 on CYP3A4 [2] is > 750 nM; on CYP3A4 [3], 347 nM.

With `CCCCNC(=O)c1ccccc1S(=O)(=O)Nc1cncc(OCC)c1` [Example 306, N-butyl-2-{[(5-ethoxypyridin-3-yl)amino]sulfonyl}benzamide], the Ki worked out at 77.8 nM at CYP3A4 [1] (setting [4]) and 24.9 nM on CYP3A4 [1] (setting [5]). The results for the IC50 on CYP3A4 [2] and on CYP3A4 [3] were 48 nM and 32 nM, respectively.

Take `COc1cncc(NS(=O)(=O)c2ccc(F)cc2C(=O)NCc2ccc(F)cc2)c1` [Example 307, 5-fluoro-N-(4-fluorobenzyl)-2-{[(5-methoxypyridin-3-yl)amino]sulfonyl}benzamide]: the Ki on CYP3A4 [1] (setting [4]) is 143 nM; at CYP3A4 [1] (setting [5]), 16.8 nM. The half-maximal inhibitory concentration (IC50) on CYP3A4 [2] came to 36 nM; at CYP3A4 [3] it was 44 nM.

For `COc1cncc(NS(=O)(=O)c2ccc(Cl)cc2C(=O)N2CCCC(C)C2)c1` (stereo not shown) [Example 308, 4-chloro-N-(5-methoxypyridin-3-yl)-2-[(3-methylpiperidin-1-yl)carbonyl]benzenesulfonamide], the Ki on CYP3A4 [1] (setting [4]) amounted to 513 nM; at CYP3A4 [1] (setting [5]), 42 nM. The IC50 on CYP3A4 [2] stood at 95 nM; on CYP3A4 [3] it was 62 nM.

In the case of `COc1cncc(NS(=O)(=O)c2ccc(Cl)cc2C(=O)N(C)C(C)C)c1` [Example 309, 5-chloro-N-isopropyl-2-{[(5-methoxypyridin-3-yl)amino]sulfonyl}-N-methylbenzamide], the Ki on CYP3A4 [1] (setting [4]) is 808 nM; on CYP3A4 [1] (setting [5]), 145 nM. The IC50 is 427 nM at CYP3A4 [2] and 149 nM at CYP3A4 [3].

Regarding `COc1cncc(NS(=O)(=O)c2ccc(Cl)cc2C(=O)NCc2ccc(F)cc2)c1` [Example 310, 5-chloro-N-(4-fluorobenzyl)-2-{[(5-methoxypyridin-3-yl)amino]sulfonyl}benzamide], the values for the Ki on CYP3A4 [1] (setting [4]) and at CYP3A4 [1] (setting [5]) were 140 nM and 28.3 nM, respectively. In addition, the IC50 at CYP3A4 [2] is 64 nM; at CYP3A4 [3] it was 53 nM.
